Assay [1] concerns the target T1, full-length MALT1 protein His-MALT1(1-824) (Homo sapiens, UniProt Q9UDY8).
T1 construct: full-length MALT1 protein His-MALT1(1-824); His (N); made in house; host or cells: baculovirus-infected insect cells
T1 sequence (Q9UDY8 1-824): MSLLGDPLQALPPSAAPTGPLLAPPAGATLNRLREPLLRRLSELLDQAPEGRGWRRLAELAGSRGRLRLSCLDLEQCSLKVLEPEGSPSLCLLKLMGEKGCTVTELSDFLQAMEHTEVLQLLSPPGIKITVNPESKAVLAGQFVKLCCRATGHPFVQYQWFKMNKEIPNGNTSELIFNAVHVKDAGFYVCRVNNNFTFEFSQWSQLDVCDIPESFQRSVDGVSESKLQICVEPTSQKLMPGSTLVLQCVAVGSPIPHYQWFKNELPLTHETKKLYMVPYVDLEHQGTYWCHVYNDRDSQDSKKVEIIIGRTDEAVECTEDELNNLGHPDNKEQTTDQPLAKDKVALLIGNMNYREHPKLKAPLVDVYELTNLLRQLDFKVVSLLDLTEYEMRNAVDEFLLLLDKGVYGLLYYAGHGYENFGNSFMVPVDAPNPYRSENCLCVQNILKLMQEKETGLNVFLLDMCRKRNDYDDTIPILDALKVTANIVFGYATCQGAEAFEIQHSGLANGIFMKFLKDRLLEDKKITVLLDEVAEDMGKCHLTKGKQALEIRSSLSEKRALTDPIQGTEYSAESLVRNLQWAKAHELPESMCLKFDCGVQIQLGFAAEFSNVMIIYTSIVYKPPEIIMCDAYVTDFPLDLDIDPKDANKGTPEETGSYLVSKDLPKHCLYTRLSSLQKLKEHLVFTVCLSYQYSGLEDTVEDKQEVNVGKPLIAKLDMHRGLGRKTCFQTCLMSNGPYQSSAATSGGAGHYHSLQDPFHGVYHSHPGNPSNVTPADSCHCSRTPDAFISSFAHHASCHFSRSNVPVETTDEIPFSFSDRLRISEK
In words: MALT1 protease assay, Assay 1 (2 nM MALT1, Ac-LRSR-AMC substrate). It is filed as biochemical. The note with it: 2 nM MALT1, 50 μM Ac-LRSR-AMC, 2 h pre-incubation, 8 hr incubation at RT. How it is done: MALT1 protease activity was assessed in an in vitro assay using a tetrapeptide as substrate and full-length MALT1 protein His-MALT1(1-824) purified from baculovirus-infected insect cells. The tetrapeptide substrate is Ac-LRSR-AMC (SM Biochemicals) with Km measured at around 100 μM.
The final assay buffer includes 1 nM (Assay 2) or 2 nM (Assay 1) of MALT1 full-length protein, 50 μM Ac-LRSR-AMC substrate, 50 mM Tris pH 7.5, 600 mM Sodium Citrate, 1 mM DTT, 1 mM EDTA, and 0.05% BSA in 384-well plate format using black microtiter square well plates (Optiplate 384-F, Perkin Elmer).
Test compounds were dissolved in 100% DMSO at stock of 10 mM, with final DMSO concentration 0.1%. Test compounds were pre-incubated with MALT1 protein for 2 h at room temperature. Substrate was added after the pre-incubation and fluorescence signal was measured using Envision at excitation 355 nm and emission 460 nm after 8 hr incubation at RT. Increase in the assay signal was linear over this period and proportional with increase in the enzyme content.
The fluorescence units were transformed to percentage of remaining activity by using the high control (HC, median of fluorescence signal from wells containing MALT1 protein, substrate, and DMSO) and low control (LC, median of fluorescence signal from wells with substrate only) with the formula below: […]
IC50 and Hill coefficients were obtained using Graph Pad Prism (Graph Pad software, Inc, USA) with non-linear regression analysis.

The target in assay [2] is T1, full-length MALT1 protein His-MALT1(1-824). In words: MALT1 protease assay, Assay 2 (1 nM MALT1, Ac-LRSR-AMC substrate). It is filed as biochemical. The note with it: 1 nM MALT1, 50 μM Ac-LRSR-AMC, 2 h pre-incubation, 8 hr incubation at RT. Summed up:
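Full-length His-MALT1(1-824) from baculovirus-infected insect cells, pre-incubated with compound 2 h at RT (0.1% DMSO). Then 50 μM Ac-LRSR-AMC added. Buffer was Tris pH 7.5 with 600 mM sodium citrate, DTT, EDTA and BSA. Fluorescence (ex 355/em 460 nm) was read after 8 h at RT and normalized to high/low controls. IC50 from non-linear regression.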

The text below walks through data of US12667572B2, “Tricyclic compounds useful in the treatment of cancer, autoimmune and inflammatory disorders” (SCHRÖDINGER, INC., priority 2021, dated 2026).

By IC50 is commonly meant the concentration that inhibits the measured activity by half.

`CC1(C)c2c(cnc3cc(Cl)nn23)C(C(=O)Nc2cnc(-n3nccn3)c(Cl)c2)C1O` (racemic) [Example 19, 2-chloro-N-(5-chloro-6-(2H-1,2,3-triazol-2-yl)pyridin-3-yl)-7-hydroxy-8,8-dimethyl-7,8-dihydro-6H-cyclopenta[e]pyrazolo[1,5-a]pyrimidine-6-carboxamide] came in with an IC50 in assay [1] of 100 to 1000 nM.

For `CC1(C)CC(C(=O)Nc2cnc(-n3nccn3)c(Cl)c2)c2cnc3cc(Cl)nn3c21` (single isomer, unassigned) [Example 1, 2-chloro-N-(5-chloro-6-(2H-1,2,3-triazol-2-yl)pyridin-3-yl)-8,8-dimethyl-7,8-dihydro-6H-cyclopenta[e]pyrazolo[1,5-a]pyrimidine-6-carboxamide], the IC50 in assay [1] is 100 to 1000 nM.

In assay [1], `CC1(C)C[C@@H](C(=O)Nc2cnc(-n3nccn3)c(Cl)c2)c2cnc3cc(C#N)nn3c21` (single isomer, unassigned) [Example 3, N-(5-chloro-6-(2H-1,2,3-triazol-2-yl)pyridin-3-yl)-2-cyano-8,8-dimethyl-7,8-dihydro-6H-cyclopenta[e]pyrazolo[1,5-a]pyrimidine-6-carboxamide] had an IC50 not below 1000 nM.

On to `Cc1cc2ncc3c(n2n1)C(C)(C)C[C@H]3C(=O)Nc1cnc(-n2nccn2)c(Cl)c1` (single isomer, unassigned) [Example 5, N-(5-chloro-6-(2H-1,2,3-triazol-2-yl)pyridin-3-yl)-2,8,8-trimethyl-7,8-dihydro-6H-cyclopenta[e]pyrazolo[1,5-a]pyrimidine-6-carboxamide], for which the IC50 in assay [1] was not below 1000 nM.

Take `CC1(C)CC[C@@H](C(=O)Nc2cnc(-n3nccn3)c(Cl)c2)c2cnc3cc(Cl)nn3c21` (single isomer, unassigned) [Example 8, 2-chloro-N-(5-chloro-6-(2H-1,2,3-triazol-2-yl)pyridin-3-yl)-9,9-dimethyl-6,7,8,9-tetrahydropyrazolo[1,5-a]quinazoline-6-carboxamide]: the IC50 in assay [1] was not below 1000 nM.

On to `Cn1ccc(-c2ncc(NC(=O)[C@@H]3CC(C)(C)c4c3cnc3cc(Cl)nn43)cc2Cl)n1` (single isomer, unassigned) [Example 10, 2-chloro-N-(5-chloro-6-(1-methyl-1H-pyrazol-3-yl)pyridin-3-yl)-8,8-dimethyl-7,8-dihydro-6H-cyclopenta[e]pyrazolo[1,5-a]pyrimidine-6-carboxamide], for which, in assay [1], the IC50 was not below 1000 nM.

As for `CC1(C)C[C@@H](C(=O)Nc2cnc(-n3cccn3)c(Cl)c2)c2cnc3cc(Cl)nn3c21` (single isomer, unassigned) [Example 12, 2-chloro-N-(5-chloro-6-(1H-pyrazol-1-yl)pyridin-3-yl)-8,8-dimethyl-7,8-dihydro-6H-cyclopenta[e]pyrazolo[1,5-a]pyrimidine-6-carboxamide], the IC50 in assay [1] is not below 1000 nM.

Turning to `CC1(C)C[C@@H](C(=O)Nc2cnc(-n3cc(C#N)cn3)c(Cl)c2)c2cnc3cc(Cl)nn3c21` (single isomer, unassigned) [Example 14, 2-chloro-N-(5-chloro-6-(4-cyano-1H-pyrazol-1-yl)pyridin-3-yl)-8,8-dimethyl-7,8-dihydro-6H-cyclopenta[e]pyrazolo[1,5-a]pyrimidine-6-carboxamide], the IC50 in assay [1] is not below 1000 nM.

In turn, `CC1(C)CC(C(=O)Nc2cnc(-n3cc(C#N)cn3)c(Cl)c2)c2cnc3cc(Cl)nn3c21` (single isomer, unassigned) [Example 15, 2-chloro-N-(5-chloro-6-(4-cyano-1H-pyrazol-1-yl)pyridin-3-yl)-8,8-dimethyl-7,8-dihydro-6H-cyclopenta[e]pyrazolo[1,5-a]pyrimidine-6-carboxamide] gave an IC50 in assay [1] of 100 to 1000 nM.

In the case of `CC1(C)C[C@@H](C(=O)Nc2cnc(N3CCCC3)c(Cl)c2)c2cnc3cc(Cl)nn3c21` (single isomer, unassigned) [Example 16, 2-chloro-N-(5-chloro-6-(pyrrolidin-1-yl)pyridin-3-yl)-8,8-dimethyl-7,8-dihydro-6H-cyclopenta[e]pyrazolo[1,5-a]pyrimidine-6-carboxamide], the IC50 in assay [1] was not below 1000 nM.

As for `CC1(C)C[C@H](C(=O)Nc2cnc(N3CCCC3)c(Cl)c2)c2cnc3cc(Cl)nn3c21` (single isomer, unassigned) [Example 17, 2-chloro-N-(5-chloro-6-(pyrrolidin-1-yl)pyridin-3-yl)-8,8-dimethyl-7,8-dihydro-6H-cyclopenta[e]pyrazolo[1,5-a]pyrimidine-6-carboxamide], the half-inhibitory concentration (IC50) in assay [1] was 10 to 100 nM.

`CCc1cc2ncc3c(n2n1)C(C)(C)C[C@H]3C(=O)Nc1cnc(-n2nccn2)c(Cl)c1` (single isomer, unassigned) [Example 20, N-(5-chloro-6-(2H-1,2,3-triazol-2-yl)pyridin-3-yl)-2-ethyl-8,8-dimethyl-7,8-dihydro-6H-cyclopenta[e]pyrazolo[1,5-a]pyrimidine-6-carboxamide]: the IC50 in assay [1] is not below 1000 nM.

`CC(C)(O)c1cnn(-c2ncc(NC(=O)C3CC(C)(C)c4c3cnc3cc(Cl)nn43)cc2Cl)n1` (single isomer, unassigned) [Example 22, 2-chloro-N-(5-chloro-6-(4-(2-hydroxypropan-2-yl)-2H-1,2,3-triazol-2-yl)pyridin-3-yl)-8,8-dimethyl-7,8-dihydro-6H-cyclopenta[e]pyrazolo[1,5-a]pyrimidine-6-carboxamide] displayed an IC50 in assay [1] of 100 to 1000 nM.

For the compound `CC1(C)C[C@@H](C(=O)Nc2cnc(-n3nccn3)c(Cl)c2)c2cnc3cc(C(F)F)nn3c21` (single isomer, unassigned) [Example 24, N-(5-chloro-6-(2H-1,2,3-triazol-2-yl)pyridin-3-yl)-2-(difluoromethyl)-8,8-dimethyl-7,8-dihydro-6H-cyclopenta[e]pyrazolo[1,5-a]pyrimidine-6-carboxamide], the IC50 in assay [1] was not below 1000 nM.

Compound `CC1(C)C[C@@H](C(=O)Nc2cnc([C@@H]3CCCO3)c(Cl)c2)c2cnc3cc(Cl)nn3c21` (single isomer, unassigned) [Example 26, 2-chloro-N-(5-chloro-6-(tetrahydrofuran-2-yl)pyridin-3-yl)-8,8-dimethyl-7,8-dihydro-6H-cyclopenta[e]pyrazolo[1,5-a]pyrimidine-6-carboxamide] registered an IC50 in assay [1] not below 1000 nM.

Compound `CC1(C)C[C@@H](C(=O)Nc2cnc([C@H]3CCCO3)c(Cl)c2)c2cnc3cc(Cl)nn3c21` (single isomer, unassigned) [Example 27, 2-chloro-N-(5-chloro-6-(tetrahydrofuran-2-yl)pyridin-3-yl)-8,8-dimethyl-7,8-dihydro-6H-cyclopenta[e]pyrazolo[1,5-a]pyrimidine-6-carboxamide] had an IC50 in assay [1] not below 1000 nM.

In turn, `Cc1cc(NC(=O)C2CC(C)(C)c3c2cnc2cc(F)nn32)cnc1-c1cnn(C)c1` (stereo not drawn) [Example 178, 2-fluoro-8,8-dimethyl-N-(5-methyl-6-(1-methyl-1H-pyrazol-4-yl)pyridin-3-yl)-7,8-dihydro-6H-cyclopenta[e]pyrazolo[1,5-a]pyrimidine-6-carboxamide] gave an IC50 in assay [2] not below 1000 nM.

In the case of `Cc1cc(NC(=O)C2CC(C)(C)c3c2cnc2cc(F)nn32)cnc1N1CCC1` (stereo not drawn) [Example 179, N-(6-(azetidin-1-yl)-5-methylpyridin-3-yl)-2-fluoro-8,8-dimethyl-7,8-dihydro-6H-cyclopenta[e]pyrazolo[1,5-a]pyrimidine-6-carboxamide], the IC50 in assay [2] is not below 1000 nM.
